From US7803816B2, “MCH receptor antagonists” (Hoffmann-La Roche Inc., priority 2005, dated 2010)
Where a name gives a salt, the structure may show the parent alone.

Target: T1, recombinant human MCHR1-receptors (Homo sapiens, UniProt Q99705)
T1 construct: expressed in transfected cells
Assay: MCHR filter binding assay (competition binding)
Details: membranes from CHO-K1 cells expressing human MCHR1; 0.2 nM [Phe13,[125I]Tyr19]-MCH; read-out: IC50 (nM), in vitro activity (binding assay)
Procedure: MCHR Filter Binding Assay
Competition binding assays were performed using membranes from CHO-K1 cells stably expressing the recombinant human MCHR1-receptors. Binding reactions (90 μl, final volume) were carried out at rt by incubating 2.8 μg membranes with 0.2 nM [Phe^13,[^125I]Tyr^19]-MCH (PerkinElmer) in the absence or presence of various concentrations of competing ligands in binding buffer (50 mM HEPES, 2.5 mM CaCl2, 0.05 mM BSA, 1 mM phenanthroline, 0.03 mM Triton X-100). [Phe^13,[^125I]Tyr^19]-MCH was added 15 min following the addition of unlabeled competing ligands, and the reactions incubated for a 1 h period. The reactions were terminated by rapid filtration over pretreated 96-well filter plates (Millipore; MultiScreen 0.65 μm GFB filter plates). Filter Plates were treated for 12 h at 4° C. with a 0.5% polyvinylpyrrolidone solution containing 1% BSA and 0.1% Tween 20, and then washed with an ice-cold solution of 10 mM Tris, pH 7.5 (5×200 μl). The plates were drained following a 5 min incubation with binding buffer (200 μl) at rt. Following termination of the binding reactions, the filters were washed with ice-cold binding buffer (4×200 μl). The filter plates were air dried for 30 min, scintillation cocktail (60 μl) added to each well and radioactivity bound to the plates was determined using a Micro-beta plate reader (Wallace/PerkinElmer).

T1 sequence (Q99705 whole entry): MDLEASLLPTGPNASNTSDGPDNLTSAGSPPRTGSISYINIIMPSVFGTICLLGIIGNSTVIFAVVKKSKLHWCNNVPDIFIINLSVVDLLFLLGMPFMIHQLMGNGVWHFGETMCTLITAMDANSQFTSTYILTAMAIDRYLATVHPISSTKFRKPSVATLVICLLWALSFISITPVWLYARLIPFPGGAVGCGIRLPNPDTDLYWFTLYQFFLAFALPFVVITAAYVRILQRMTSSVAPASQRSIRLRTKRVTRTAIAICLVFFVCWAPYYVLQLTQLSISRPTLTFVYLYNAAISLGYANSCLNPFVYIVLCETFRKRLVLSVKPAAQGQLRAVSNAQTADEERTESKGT

SMILES | IC50 [nM]
Cc1ccc2c(c1)nc(C)n2[C@@H]1CCN(C[C@H]2Cc3ccc(NC(=O)C(C)C)cc3C2)C[C@H]1O [Example 9, N-{(S)-2-[(3R,4R)-4-(2,5-Dimethyl-benzoimidazol-1-yl)-3-hydroxy-piperidin-1-ylmethyl]-indan-5-yl}-isobutyramide; trifluoroacetic acid salt] | 20 to 200
Cc1ccc2c(c1)nc(C)n2C1CCN(C[C@@H]2Cc3ccc(NC(=O)C(C)C)cc3C2)CC1O (stereo partly drawn) [Example 27, N-{(R)-2-[4-(2,5-Dimethyl-benzoimidazol-1-yl)-3-hydroxy-piperidin-1-ylmethyl]-indan-5-yl}-isobutyramide; dihydrochloride] | 200 to 5000
CO[C@H]1CN(CC2Cc3cc(F)c(F)cc3C2)CC[C@@H]1n1c(C(C)C)nc2cc(C)ccc21 [Example 100, 1-[(3S,4S)-1-(5,6-Difluoro-indan-2-ylmethyl)-3-methoxy-piperidin-4-yl]-2-isopropyl-5-methyl-1H-benzoimidazole] | 20 to 200
CO[C@@H]1CN(C[C@H]2Cc3ccc(NC(=O)C(C)C)cc3C2)CC[C@H]1n1c(C)nc2cc(C)ccc21 [Example 43, N-{(S)-2-[(3R,4R)-4-(2,5-Dimethyl-benzoimidazol-1-yl)-3-methoxy-piperidin-1-ylmethyl]-indan-5-yl}-isobutyramide] | 20 to 200
CO[C@@H]1CN(C[C@H]2Cc3ccc(C#N)cc3C2)CC[C@H]1n1c(C)nc2cc(C)ccc21 [Example 85, (S)-2-[(3R,4R)-4-(2,5-Dimethyl-benzoimidazol-1-yl)-3-methoxy-piperidin-1-ylmethyl]-indan-5-carbonitrile] | < 20
CO[C@H]1CN(C[C@@H]2Cc3ccc(NC(=O)C(F)F)cc3C2)CC[C@@H]1n1c(C2CC2)nc2cc(C)ccc21 [Example 63, N-{(R)-2-[(3S,4S)-4-(2-Cyclopropyl-5-methyl-benzoimidazol-1-yl)-3-methoxy-piperidin-1-ylmethyl]-indan-5-yl}-2,2-difluoro-acetamide] | < 20
Cc1cc2nc(C(C)(C)O)n(C3CCN(C[C@H]4Cc5ccc(Br)cc5C4)CC3)c2cc1F [Example 124, 2-{1-[1-((S)-5-Bromo-indan-2-ylmethyl)-piperidin-4-yl]-6-fluoro-5-methyl-1H-benzoimidazol-2-yl}-propan-2-ol] | < 20
Cc1ccc2c(c1)nc(C)n2[C@@H]1CCN(C[C@@H]2Cc3ccc(NC(=O)C(C)C)cc3C2)C[C@H]1CO [Example 36, N-{(R)-2-[4-(2,5-Dimethyl-benzoimidazol-1-yl)-3-hydroxymethyl-piperidin-1-ylmethyl]-indan-5-yl}-isobutyramide] | < 20
CO[C@@H]1CN(C[C@H]2Cc3ccc(Br)cc3C2)CC[C@H]1n1c(C(C)(C)O)nc2cc(F)ccc21 [Example 111, 2-{1-[(3R,4R)-1-((S)-5-Bromo-indan-2-ylmethyl)-3-methoxy-piperidin-4-yl]-5-fluoro-1H-benzoimidazol-2-yl}-propan-2-ol] | 20 to 200
Cc1ccc2c(c1)nc(C)n2[C@@H]1CCN(C[C@H]2Cc3ccc(NC(=O)C4CC4)cc3C2)C[C@H]1O [Example 88, Cyclopropanecarboxylic acid {(S)-2-[(3R,4R)-4-(2,5-dimethyl-benzoimidazol-1-yl)-3-hydroxy-piperidin-1-ylmethyl]-indan-5-yl}-amide] | 20 to 200
CO[C@H]1CN(C[C@@H]2Cc3ccc(Br)cc3C2)CC[C@@H]1n1c(C(C)(C)O)nc2cc(C)ccc21 [Example 116, 2-{1-[(3S,4S)-1-((R)-5-Bromo-indan-2-ylmethyl)-3-methoxy-piperidin-4-yl]-5-methyl-1H-benzoimidazol-2-yl}-propan-2-ol] | 20 to 200
CO[C@@H]1CN(C[C@H]2Cc3ccc(Br)cc3C2)CC[C@H]1n1c(C(C)(C)C)nc2cc(C)ccc21 [Example 26, 1-[(3R,4R)-1-((S)-5-Bromo-indan-2-ylmethyl)-3-methoxy-piperidin-4-yl]-2-tert-butyl-5-methyl-1H-benzoimidazole] | 20 to 200
CO[C@@H]1CN(CC2Cc3ccc(C)cc3C2)CC[C@H]1n1c(C(C)(C)O)nc2cc(C)ccc21 (stereo partly drawn) [Example 117, 2-{1-[(3R,4R)-3-Methoxy-1-(5-methyl-indan-2-ylmethyl)-piperidin-4-yl]-5-methyl-1H-benzoimidazol-2-yl}-propan-2-ol] | 20 to 200
Cc1ccc2c(c1)nc(-c1ccccc1)n2C1CCN(C[C@@H]2Cc3ccc(NC(=O)C(C)C)cc3C2)CC1 [Example 33, N-{(R)-2-[4-(5-Methyl-2-phenyl-benzoimidazol-1-yl)-piperidin-1-ylmethyl]-indan-5-yl}-isobutyramide] | < 20
Cc1ccc2c(c1)nc(C(C)(C)O)n2C1CCN(CC2Cc3ccc(Cl)cc3C2)CC1 (stereo not drawn) [Example 14, 2-{1-[1-(5-Chloro-indan-2-ylmethyl)-piperidin-4-yl]-5-methyl-1H-benzoimidazol-2-yl}-propan-2-ol] | < 20
CO[C@@H]1CN(C[C@H]2Cc3ccc(Br)cc3C2)CC[C@H]1n1c(C(C)(C)O)nc2cc(C)c(F)cc21 [Example 123, 2-{1-[(3R,4R)-1-((S)-5-Bromo-indan-2-ylmethyl)-3-methoxy-piperidin-4-yl]-6-fluoro-5-methyl-1H-benzoimidazol-2-yl}-propan-2-ol] | < 20
CO[C@@H]1CN(C[C@@H]2Cc3ccc(Br)cc3C2)CC[C@H]1n1c(C(C)(C)O)nc2cc(C)ccc21 [Example 115, 2-{1-[(3R,4R)-1-((R)-5-Bromo-indan-2-ylmethyl)-3-methoxy-piperidin-4-yl]-5-methyl-1H-benzoimidazol-2-yl}-propan-2-ol] | 20 to 200
COC1CN(C[C@@H]2Cc3ccc(NC(=O)C4CC4)cc3C2)CCC1n1c(C(C)C)nc2cc(C)ccc21 (stereo partly drawn) [Example 64, Cyclopropanecarboxylic acid {(R)-2-[4-(2-isopropyl-5-methyl-benzoimidazol-1-yl)-3-methoxy-piperidin-1-ylmethyl]-indan-5-yl}-amide] | < 20
CO[C@@H]1CN(C[C@H]2Cc3ccc(NC(=O)C(C)C)cc3C2)CC[C@H]1n1c(C)nc2cc(C)ccc21 [Example 39, N-{(S)-2-[(3R,4R)-4-(2,5-Dimethyl-benzoimidazol-1-yl)-3-methoxy-piperidin-1-ylmethyl]-indan-5-yl}-isobutyramide; dihydrochloride] | < 20
Cc1cc2ncn(C3CCN(CC4Cc5ccc(F)cc5C4)CC3)c2cc1F (stereo not drawn) [Example 106, 6-Fluoro-1-[1-(5-fluoro-indan-2-ylmethyl)-piperidin-4-yl]-5-methyl-1H-benzoimidazole] | 20 to 200
Cc1ccc2c(c1)nc(C)n2C1CCN(CC2=Cc3cc(NC(=O)C(C)C)ccc3C2)CC1 [Example 54, N-{2-[4-(2,5-Dimethyl-benzoimidazol-1-yl)-piperidin-1-ylmethyl]-1H-inden-5-yl}-isobutyramide] | 200 to 5000
CCC(=O)Nc1ccc2c(c1)C[C@H](CN1CC[C@@H](n3c(C4CC4)nc4cc(C)ccc43)[C@H](OC)C1)C2 [Example 76, N-{(R)-2-[(3R,4R)-4-(2-Cyclopropyl-5-methyl-benzoimidazol-1-yl)-3-methoxy-piperidin-1-ylmethyl]-indan-5-yl}-propionamide] | 20 to 200
Cc1ccc2c(c1)nc(C)n2[C@@H]1CCN(C[C@@H]2Cc3ccc(NC(=O)C(C)C)cc3C2)C[C@H]1OCC(C)(C)O [Example 21, N-{(R)-2-[(3R,4R)-4-(2,5-Dimethyl-benzoimidazol-1-yl)-3-(2-hydroxy-2-methyl-propoxy)-piperidin-1-ylmethyl]-indan-5-yl}-isobutyramide; dihydrochloride] | 20 to 200

Same assay, conditions: membranes from CHO-K1 cells expressing human MCHR1; 0.2 nM [Phe13,[125I]Tyr19]-MCH; read-out: IC50 (nM), selected in vitro MCH-R binding data

SMILES | IC50 [nM]
Cc1cc2ncn(C3CCN(CC4Cc5ccc(F)cc5C4)CC3)c2cc1F (stereo not drawn) [Example 106, 6-Fluoro-1-[1-(5-fluoro-indan-2-ylmethyl)-piperidin-4-yl]-5-methyl-1H-benzoimidazole] | 194
